Measurements published in BindingDB's records for patent US20240360157 (Biogen Ma, 2024).

Legend:
Test in all cases: ADP-Glo Kinase Assay
[1] = molecular target: Non-receptor tyrosine-protein kinase TYK2 (Homo sapiens, UniProt P29597)
Procedure: (§1) The kinase activity of recombinantly generated catalytic kinase (also known as JH1) domain of human JAK1, JAK2, JAK3 and TYK2 were evaluated in a plate-based assay using the ADP-Glo™ Kinase Assay platform. Specifically, 4 nM of recombinant JAK1 kinase domain is used to phosphorylate 50 μM of a JAK3-342 (sequence ALVDGYFRLTT) peptide in the presence of 35 μM ATP. Catalytic activities of recombinant JAK2, JAK3 and TYK2 kinase domain (0.2, 0.3 and 2 nM, respectively) are evaluated by the phosphorylation status of the JAK3-974 (50 μM; sequence LPLDKDYYVVR) peptide with the addition of ATP (15, 4 and 10 μM, respectively). The reactions proceed for 100 minutes and the catalytic activity is quantified by first depleting the unused ATP, converting the hydrolyzed ADP into ATP to generate luminescence in a luciferase reaction; which is the basis of the ADP-Glo platform. Compounds are tested at either 10 μM or 1 μM top concentration, 11 points of 3-fold dilution.

[2] = molecular target: Tyrosine-protein kinase JAK1 (Homo sapiens, UniProt P23458)
Chain of Tyrosine-protein kinase JAK1 (P23458 whole entry): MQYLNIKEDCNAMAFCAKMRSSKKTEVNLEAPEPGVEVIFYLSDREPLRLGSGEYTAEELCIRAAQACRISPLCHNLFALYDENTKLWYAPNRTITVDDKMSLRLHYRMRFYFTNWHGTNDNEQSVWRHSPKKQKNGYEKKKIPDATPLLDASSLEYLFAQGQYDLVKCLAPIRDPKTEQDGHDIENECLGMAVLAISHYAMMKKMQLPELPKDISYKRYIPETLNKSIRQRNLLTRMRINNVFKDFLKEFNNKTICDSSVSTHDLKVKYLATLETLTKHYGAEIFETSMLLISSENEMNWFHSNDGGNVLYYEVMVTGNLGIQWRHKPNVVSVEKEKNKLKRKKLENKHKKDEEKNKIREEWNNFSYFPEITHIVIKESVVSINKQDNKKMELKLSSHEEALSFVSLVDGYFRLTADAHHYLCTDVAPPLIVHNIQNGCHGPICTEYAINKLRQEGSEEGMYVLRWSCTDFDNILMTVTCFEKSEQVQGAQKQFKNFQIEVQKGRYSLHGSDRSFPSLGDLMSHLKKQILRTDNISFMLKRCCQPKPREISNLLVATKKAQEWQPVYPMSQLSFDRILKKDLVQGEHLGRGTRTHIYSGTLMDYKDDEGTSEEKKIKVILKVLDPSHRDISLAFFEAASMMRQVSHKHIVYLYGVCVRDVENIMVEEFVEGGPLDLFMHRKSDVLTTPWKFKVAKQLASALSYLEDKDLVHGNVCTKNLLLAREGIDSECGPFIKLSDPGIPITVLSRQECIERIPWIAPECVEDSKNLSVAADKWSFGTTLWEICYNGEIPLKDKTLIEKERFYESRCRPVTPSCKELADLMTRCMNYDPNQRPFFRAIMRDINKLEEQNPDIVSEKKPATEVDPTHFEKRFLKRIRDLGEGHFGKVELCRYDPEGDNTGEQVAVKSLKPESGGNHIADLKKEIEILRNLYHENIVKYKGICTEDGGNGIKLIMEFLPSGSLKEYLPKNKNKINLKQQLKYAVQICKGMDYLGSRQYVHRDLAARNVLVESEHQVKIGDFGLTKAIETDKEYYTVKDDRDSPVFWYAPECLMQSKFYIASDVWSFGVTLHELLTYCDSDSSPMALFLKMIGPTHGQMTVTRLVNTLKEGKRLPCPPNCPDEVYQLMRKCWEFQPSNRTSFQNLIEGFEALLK
Procedure: as §1

[3] = molecular target: Tyrosine-protein kinase JAK2 (Homo sapiens, UniProt O60674)
Chain of Tyrosine-protein kinase JAK2 (O60674 whole entry): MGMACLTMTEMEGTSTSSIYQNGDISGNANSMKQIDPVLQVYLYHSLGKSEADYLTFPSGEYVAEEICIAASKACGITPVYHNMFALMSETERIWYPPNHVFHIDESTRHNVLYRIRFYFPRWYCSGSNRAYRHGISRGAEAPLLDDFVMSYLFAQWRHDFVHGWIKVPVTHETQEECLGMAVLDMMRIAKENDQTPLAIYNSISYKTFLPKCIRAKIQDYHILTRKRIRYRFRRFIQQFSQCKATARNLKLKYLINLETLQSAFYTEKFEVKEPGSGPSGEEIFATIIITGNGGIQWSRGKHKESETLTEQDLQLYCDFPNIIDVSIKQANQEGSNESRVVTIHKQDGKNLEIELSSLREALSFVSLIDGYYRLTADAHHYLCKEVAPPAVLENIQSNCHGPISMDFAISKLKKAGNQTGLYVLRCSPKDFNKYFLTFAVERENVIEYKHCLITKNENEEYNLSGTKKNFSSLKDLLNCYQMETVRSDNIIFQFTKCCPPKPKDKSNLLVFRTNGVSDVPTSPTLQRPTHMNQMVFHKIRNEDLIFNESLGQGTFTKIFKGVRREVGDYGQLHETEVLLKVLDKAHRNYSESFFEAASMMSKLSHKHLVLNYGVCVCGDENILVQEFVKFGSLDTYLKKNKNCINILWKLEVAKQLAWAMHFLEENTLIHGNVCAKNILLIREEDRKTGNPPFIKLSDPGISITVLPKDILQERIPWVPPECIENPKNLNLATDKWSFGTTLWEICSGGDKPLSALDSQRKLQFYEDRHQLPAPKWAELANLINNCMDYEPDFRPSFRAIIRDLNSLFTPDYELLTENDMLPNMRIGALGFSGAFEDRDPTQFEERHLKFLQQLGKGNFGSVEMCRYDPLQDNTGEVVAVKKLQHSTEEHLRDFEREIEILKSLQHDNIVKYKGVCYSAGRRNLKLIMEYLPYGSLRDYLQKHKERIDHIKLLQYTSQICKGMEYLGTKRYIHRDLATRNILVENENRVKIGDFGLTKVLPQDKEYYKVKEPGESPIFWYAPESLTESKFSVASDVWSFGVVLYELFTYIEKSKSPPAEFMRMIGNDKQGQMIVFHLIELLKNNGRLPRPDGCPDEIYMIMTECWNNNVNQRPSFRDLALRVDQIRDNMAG
Procedure: as §1

[4] = molecular target: T1, Tyrosine-protein kinase JAK3 [3-974] (UniProt P52333)
T1 construct: 3-974
T1 sequence (P52333 whole entry): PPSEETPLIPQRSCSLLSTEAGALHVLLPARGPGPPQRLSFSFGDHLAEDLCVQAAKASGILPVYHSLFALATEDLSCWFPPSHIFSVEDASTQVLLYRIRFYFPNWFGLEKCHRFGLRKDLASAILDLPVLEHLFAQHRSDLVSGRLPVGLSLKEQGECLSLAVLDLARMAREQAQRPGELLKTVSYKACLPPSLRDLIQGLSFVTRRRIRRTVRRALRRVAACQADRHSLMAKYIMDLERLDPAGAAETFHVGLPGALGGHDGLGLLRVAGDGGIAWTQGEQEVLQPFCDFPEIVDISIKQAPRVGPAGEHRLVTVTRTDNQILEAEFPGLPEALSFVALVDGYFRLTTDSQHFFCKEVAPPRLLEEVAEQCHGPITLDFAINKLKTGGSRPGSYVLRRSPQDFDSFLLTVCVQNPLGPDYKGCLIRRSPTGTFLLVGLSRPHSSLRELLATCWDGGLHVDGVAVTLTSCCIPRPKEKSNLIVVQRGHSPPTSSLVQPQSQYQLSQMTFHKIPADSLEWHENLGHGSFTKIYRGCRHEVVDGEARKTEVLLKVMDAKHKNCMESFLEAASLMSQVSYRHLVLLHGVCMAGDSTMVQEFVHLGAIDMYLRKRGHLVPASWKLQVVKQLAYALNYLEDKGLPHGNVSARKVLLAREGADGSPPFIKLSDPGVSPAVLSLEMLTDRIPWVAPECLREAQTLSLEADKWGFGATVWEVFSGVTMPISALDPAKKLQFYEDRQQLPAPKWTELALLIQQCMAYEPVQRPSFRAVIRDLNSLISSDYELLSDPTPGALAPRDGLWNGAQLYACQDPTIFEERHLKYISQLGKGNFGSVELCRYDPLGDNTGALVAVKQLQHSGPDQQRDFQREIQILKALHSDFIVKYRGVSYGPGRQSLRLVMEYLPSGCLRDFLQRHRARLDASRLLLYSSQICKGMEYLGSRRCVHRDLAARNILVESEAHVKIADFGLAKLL
Procedure: as §1

Chain of Non-receptor tyrosine-protein kinase TYK2 (P29597 whole entry, the tested form may be a part): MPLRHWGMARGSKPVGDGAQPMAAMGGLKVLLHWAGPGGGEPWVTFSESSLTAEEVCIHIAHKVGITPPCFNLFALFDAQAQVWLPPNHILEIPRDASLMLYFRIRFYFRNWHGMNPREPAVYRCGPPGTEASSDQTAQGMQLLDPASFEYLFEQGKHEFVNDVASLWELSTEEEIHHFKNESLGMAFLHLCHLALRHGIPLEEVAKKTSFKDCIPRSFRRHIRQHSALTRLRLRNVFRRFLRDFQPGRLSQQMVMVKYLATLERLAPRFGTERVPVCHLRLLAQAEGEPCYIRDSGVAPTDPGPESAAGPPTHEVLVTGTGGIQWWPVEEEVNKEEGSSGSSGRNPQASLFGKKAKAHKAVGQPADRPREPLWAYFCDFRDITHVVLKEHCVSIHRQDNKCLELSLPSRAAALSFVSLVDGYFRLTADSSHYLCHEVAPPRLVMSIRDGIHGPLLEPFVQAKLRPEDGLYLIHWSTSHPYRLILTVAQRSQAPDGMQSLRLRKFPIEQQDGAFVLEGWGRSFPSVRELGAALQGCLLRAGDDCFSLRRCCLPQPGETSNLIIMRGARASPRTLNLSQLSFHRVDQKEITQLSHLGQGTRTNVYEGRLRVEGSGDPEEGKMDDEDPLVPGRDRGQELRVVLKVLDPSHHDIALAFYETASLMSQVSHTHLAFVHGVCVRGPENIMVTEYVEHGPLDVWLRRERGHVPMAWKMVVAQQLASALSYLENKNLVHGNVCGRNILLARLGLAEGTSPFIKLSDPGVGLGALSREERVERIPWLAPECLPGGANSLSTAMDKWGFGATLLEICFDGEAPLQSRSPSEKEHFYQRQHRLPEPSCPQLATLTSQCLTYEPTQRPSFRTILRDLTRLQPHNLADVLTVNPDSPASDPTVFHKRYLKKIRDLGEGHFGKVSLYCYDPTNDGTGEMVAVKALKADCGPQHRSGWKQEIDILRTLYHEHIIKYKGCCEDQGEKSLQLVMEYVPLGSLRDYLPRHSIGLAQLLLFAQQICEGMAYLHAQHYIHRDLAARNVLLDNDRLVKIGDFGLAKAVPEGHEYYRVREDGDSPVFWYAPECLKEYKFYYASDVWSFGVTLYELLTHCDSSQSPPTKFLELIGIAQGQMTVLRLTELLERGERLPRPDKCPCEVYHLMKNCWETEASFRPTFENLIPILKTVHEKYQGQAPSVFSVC

Row | SMILES | IC50 [1] [nM] | IC50 [2] [nM] | IC50 [3] [nM] | IC50 [4] [nM]
1 | Cn1cc(-c2cc3c(N4CC5CCC(C4)N5C(=O)[C@@H]4CC4(F)F)ccnc3[nH]2)cn1 [US20240360157, Example 239] | 0.2 | 18 | 8 | 114
2 | COc1cc(-c2cc3c(N4CC5CCC(C4)N5C(=O)[C@@H]4C[C@H]4F)ccnc3[nH]2)c(F)cn1 [US20240360157, Example 246] | 5.1 | 76 | 53 | 992
